# Source: patent EP4111863A1, “PHOSPHORUS USE EFFICIENCY ENHANCERS AS PLANT GROWTH PROMOTORS” (EuroChem Antwerpen, priority 2021, dated 2023)
# Tested on: SPX1
# Test: Chemical activity assessment: SPX1 phosphate starvation biomarker, pSPX1::GUS reporter line, GUS stained area
# Format: in vivo, Arabidopsis thaliana
# Conditions: Table 2; 50 µM compound, low phosphate modMS liquid medium, 7 days after germination; low phosphate control average of the same plate
# Protocol: All Arabidopsis plant experiments were performed using the Arabidopsis thaliana Columbia-0 background. The Arabidopsis pSPX1::GUS line is described in the […] 2008, 54: 965-975. For rice, the cultivar Nipponbare was used. For maize, the cultivars DKC 2931 and B104 were used for regular pot experiments and sand-based pot experiments, respectively. For soybean, the cultivar Primus was used. […] The medium was solidified due to the addition of 0,6% Gelrite, unless stated otherwise. In case of vertical plates (root length and root hair measurements), the medium was supplied with 0.5% of sucrose and 1 µM (low phosphate, 1 µM KH2PO4, 9.9 mM KCI), 10 µM (low phosphate 10 µM KH2PO4, 9.9 mM KCI) or 1.25 mM KH2PO4 (high phosphate). Arabidopsis seeds were stratified for 2 days at 4 °C before germination. Seedlings were germinated in climate-controlled growth chambers at 22 °C under continuous light (100 µmol m^-2 s^-1). Husked rice seeds were germinated on wetted Whatman paper for 2 days at 37 °C and then transferred to Sterivent boxes or square Petri dishes with solid medium. Maize and soybean seeds were wetted 24 hours at room temperature prior to sowing in pots.
# For the chemical activity assessment 3 to 8 seeds per well of Arabidopsis pSPX1::GUS line were sown in 96-well plates containing 150 µl of low phosphate modMS liquid medium containing 1% of sucrose. Compounds were added in 50 µM concentration, starting from a 5 mM stock of compounds solved in DMSO. Different chemical substances were separately added to different wells. Per plate, 16 control wells were used, 8 containing only the low phosphate medium and 1% DMSO, and 8 containing high phosphate medium and 1% DMSO. 7 days after germination, plates were scanned using a flatbed scanner (EPSON Expression 11000XL) and analyzed for leaf size. After scanning, the growth medium was replaced by GUS staining solution (see Plant Mol. Biol. Rep. 1994, 12: 37-42 for details) and incubated for 1.5 hours at 37 °C. The plates were scanned a second time and analyzed for GUS signal area. Measurements of both leaf area and GUS signal area were conducted by filtering out and measure the green and blue signal, respectively using ImageJ software. If the green leaf area was 50% or less than the control, samples were omitted. Additionally, all results were visually screened for leaf size and GUS signal.
row,Compound,GUS (SPX1) stained area normalized to the number of seeds (pixels)
1,CC(C)c1ncsc1C(=O)NCC1CN(C)CCO1 (centres unmarked) [Compound 4.4],106

# Same assay, conditions: Table 3; 50 µM compound, low phosphate modMS liquid medium, 7 days after germination; low phosphate control average of the same plate
row,Compound,GUS (SPX1) stained area normalized to the number of seeds (pixels)
1,Cc1nc2c(c(C)nn2C)c(C)c1CCC(=O)N1CC(C)OC(C)C1 (centres unmarked),27
2,Cc1cnn(CC2CN(C(C)C(=O)Nc3cc(C)no3)CCO2)c1 (centres unmarked),7
3,Cc1cnc(CN2CCOC(c3ccc(C(F)(F)F)cc3)C2)o1 (centres unmarked),46
4,Cc1csc(C2CN(Cc3nc(-c4ccccc4)no3)CCO2)n1 (centres unmarked),0
5,Cn1cccc1C1COCCN1CCOCC1CC1 (centres unmarked),6
6,CCC1CN(C(=O)C(C)OCC2CC2)CC1N1CCOCC1 (centres unmarked),62
7,FC(F)(F)c1ccnc(N2CCOC(c3nccs3)C2)n1 (centres unmarked),0
8,CCc1nsc(N2CCOC(C)C2)n1 (centres unmarked),44
9,CSc1nnc(CN2CC(c3ccccc3)OCC2(C)C)s1 (centres unmarked),43
10,COC(=O)C1CN(Cc2sccc2Br)C[C@@H](C)O1 (some centres unmarked),13
11,O=S(=O)(CCN1CCOC2CCCCC21)c1cc(Cl)ccc1Cl (centres unmarked),9
12,Cc1cnc(CN2CCOCC23CCCC3)o1,46
13,CC(c1nnc(-c2cccs2)o1)N1CCOC(c2nccs2)C1 (centres unmarked),453
14,Cc1cccn2c(=O)cc(CN3CCOC(c4ccc(F)cc4)C3)nc12 (centres unmarked),19
15,Fc1ccc(-c2nnc(SCc3ccc4ccccc4n3)n2CCN2CCOCC2)cc1,22
16,COC(=O)C1CN(c2ccc(C(F)(F)F)cn2)C[C@@H](C)O1 (some centres unmarked),1
17,CCc1ccc(C(C)NCC2(N3CCOCC3)CCSC2)o1 (centres unmarked),151
18,Cc1ccc(C(C)C)c(OCCNCCN2CCOCC2)c1,40
19,COc1cc(C(C)=O)ccc1OC(=O)N1CCOCC1,8
20,Cc1c(C(=O)NCC2CN(CC(C)C)CCO2)cnn1C (centres unmarked),9
21,O=C(O)c1cc(Cl)nc(N2CCOCC2)c1,0
22,O=C(CSc1ccc(F)cc1)Nc1ccc(Cl)c(S(=O)(=O)N2CCOCC2)c1,5

row,Compound,GUS (SPX1) stained area normalized to the number of seeds (pixels)
1,COCCn1c(SCC(=O)N2CCOCC2)nnc1-c1ccncc1,9
2,CC1(C)CN(C(=O)c2csc(-c3ccsc3)n2)CCO1,31
3,CC1CN(C(=O)C2(c3ccc(F)cc3)CC2)CC1N1CCOCC1 (centres unmarked),53
4,CC1COCCN1Cn1nc(Br)nc1Br (centres unmarked),47
5,O=C1CCCCCN1CCCNC(=O)N1CCOC2(CCCCCC2)C1,40
6,Cc1cnc(CN2CCOC(c3nc(C(C)C)n[nH]3)C2)o1 (centres unmarked),7
7,Cc1nnc(CN2CCOCC2c2cccn2C)o1 (centres unmarked),50
8,CC(Nc1cnn(CCN2CCOCC2)c1)c1nccs1 (centres unmarked),25
9,CC1CN(C(=O)c2csc(-c3ccsc3)n2)C(C)CO1 (centres unmarked),46
10,Cn1cc(C2CN(Cc3ccc(CSC(F)F)o3)CCO2)cn1 (centres unmarked),15
11,Cc1csc(C2COCCN2C(=O)NC2CCc3ccccc32)n1 (centres unmarked),12
12,CC(C)c1nc(C2COCCN2c2ccnc(-c3ccccc3)n2)no1 (centres unmarked),21
13,O=C1C(=O)N(C2CCCC2)C(=O)N1Cc1cccc(S(=O)(=O)N2CCOCC2)c1,9
14,CC1CN(S(=O)(=O)CCNc2nc(-c3ccncc3)nc3ccccc23)CC(C)O1 (centres unmarked),1
15,Fc1ccc(C2CN(Cc3nnsc3Cl)CCO2)cc1 (centres unmarked),3
16,O=C(CSc1ncnc2sccc12)c1ccc(CC(=O)N2CCOCC2)s1,15
17,Cc1nn(C)c(C)c1C1CCCN1CC(O)CN1CCOCC1 (centres unmarked),37
18,CC(=O)Nc1nc(CN2CC(C)OC(c3ccsc3)C2)cs1 (centres unmarked),20
19,CC1CN(C(C)c2nc(C3CC3)no2)CCO1 (centres unmarked),441
20,Cc1nc(C(C)(C)NCC(=O)N2CC(C)OC(C)C2)sc1C (centres unmarked),34
21,Cc1ccc2cccc(OC(=O)N3CCOCC3)c2n1,21
22,Cc1cc(I)ccc1NC(=O)CN1CCOC(C)C1 (centres unmarked),17

row,Compound,GUS (SPX1) stained area normalized to the number of seeds (pixels)
1,CCC(CC)C(C(=O)NCc1cccc(C)c1)N1CCOCC1 (centres unmarked),11
2,CC1CN(Cc2csc(NC(=O)c3ccco3)n2)CC(C)O1 (centres unmarked),2
3,CCC1CN(C(=O)c2[nH]nc(C)c2Br)CCO1 (centres unmarked),0
4,C=CCn1c(SCc2cccc(S(=O)(=O)N3CCOCC3)c2)nc2ccccc21,1
5,CN(C)c1nc(CN2CCOCC2CC(=O)c2ccco2)ns1 (centres unmarked),330
6,CC1CN(CC(=O)Nc2ccccc2C(=O)NC2CCCC2)CC(C)O1 (centres unmarked),21
7,COc1ccc(-c2[nH]c3ccccc3c2CCC(=O)N2CCOCC2)cc1,3
8,C[C@@H](CO)NS(=O)(=O)c1ccc(S(=O)(=O)N2CCOCC2)cc1,1
9,c1ccc2nc(N3CCOCC3)cnc2c1,43
10,O=C(COc1cc(Cl)ccc1Cl)NCc1ccc(N2CCOCC2)nc1,3
11,O=S(=O)(c1cccc(-c2nnc(SCc3ccccc3)o2)c1)N1CCOCC1,43
12,CCCCS(=O)(=O)N1CCOCC1c1noc(C(C)C)n1 (centres unmarked),73
13,Cc1nc2c(cc(Oc3ccc(S(=O)(=O)N4CCOCC4)cn3)c3ccsc32)s1,26
14,O=C(Nc1ccc(F)c(C(F)(F)F)c1)N1CCOCC1,8
15,CCCc1csc(NC(=O)N2CCOC3(CCC3)C2)n1,49
16,c1cc2c(cc1C1CCCN1c1nc(CN3CCOCC3)nc3sc4c(c13)CCC4)OCCO2 (centres unmarked),1
17,CC1(C)COCCN1C(=O)c1cnc(-c2cccs2)s1,45
18,CC1CN(C(=O)Nc2cc(C(C)C)on2)CC(c2ccsc2)O1 (centres unmarked),23
19,C=CCCN1CC(C(=O)OC)O[C@H](C)C1 (some centres unmarked),5
20,COCC(C)Nc1ccc(N2CCOC(C)(C)C2)cc1OC (centres unmarked),7
